Common to all, as to experiment: inhibition of tumour cell growth, NCI panel, 48 h
Test [1] relates to OVCAR-3 ovarian.
Test [2] concerns UO-31 renal.
The test system of test [3] is 786-0 renal.
Test [4] has as its system TK-10 renal.
Test [5] concerns EKVX NSCLC.
Test [6] relates to SN12C renal.
The subject of test [7] is HT29 colon.
Test [8] deals with NCI-H23 lung.
In test [9] the test system is OVCAR-5 ovarian.
Test [10] relates to NCI/ADR-RES ovarian.

“And” between values parts separate entries of the source, which are not always exact repeats. Equal entries are not always repeated.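 Following 48 hours of exposure in 96-well plates, responses at five concentrations were used to interpolate endpoints linearly. At the TGI there is no net growth.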

With `CCN(CC)CCCNC(=O)c1ccc([N+](=O)[O-])cc1O`, the TGI in test [1], in test [2], in [3], in [4], in test [5] and in [6] was above 100 µM in each case. In addition, the TGI in [7], in test [8] and in test [9] was above 100 µM each time.

In the case of `C=Cc1ccc(C)[n+](C[Si](C)(C)O[Si](C)(C)C[n+]2cc(C=C)ccc2C)c1`, the TGI in test [1], in test [2], in [3], in test [4], in test [5] and in test [6] was above 100 µM in each case. For the same compound, the TGI in [7], in [8] and in test [9] was above 100 µM each time.

In the case of `N#CC1=C(c2ccccc2)NNC(c2ccc(Cl)cc2)CC1=O` (configuration not stated), the TGI in test [4], in [6], in [7], in [8] and in [9] was above 100 µM in each case.

As to `Cn1ccnc1C(O)(c1nccn1C)c1nccn1C`, the TGI in [2], in test [4], in [5], in test [6], in [7] and in test [8] was above 100 µM each time. The compound also had a TGI in test [9] above 100 µM.

Take `CC(C)=CCC/C(C)=C/COC(C)(C)C1=CCC(C)CC1` (configuration not stated) (tested in a mixture with another compound): the TGI in [1], in test [2], in test [3], in test [4], in [5] and in [6] was above 100 µM in each case. In addition, the TGI in test [7], in test [8] and in test [9] was above 100 µM each time.

For the compound `O=C1NCCS(=O)(=O)N[C@@H](CC2=CC=CCC2)C(=O)N2CCCC12` (some centres not stated), the TGI in [1], in test [2], in [3], in test [4], in test [5] and in test [6] was above 100 µM in each case. The TGI in test [7], in test [8] and in test [9] was above 100 µM in each case.

`COc1ccc(-c2c3c([nH]c(=S)c2C#N)CC(C)(C)CC3=O)cc1`: the TGI in test [1], in test [2], in test [3], in test [4], in test [5] and in [6] was above 100 µM each time. In addition, the TGI in [7], in [8] and in [9] was above 100 µM in each case.

Consider `CCOC(=O)c1nc2ccc(C(F)(F)F)cc2nc1Oc1ccc(C#N)cc1`, for which the TGI in test [2] is above 100 µM; in [3] it was 35.6 µM; in test [4], 84.3 µM; in test [10] it was 48.9 µM; in test [5], 30.2 µM; in [7], 77.9 µM. This compound came in with a TGI in [8] above 100 µM.

`O=C(CN(c1ccccc1)c1ccccc1)N1c2ccccc2C2C=CC=CC21` (configuration not stated): the TGI was 44.6 µM in test [1]; above 49.9 µM in test [2]; 56.3 µM in [3]; above 57.2 µM in test [4]; above 59.4 µM in test [5]; 34.4 µM in [6]. In addition, the TGI is above 56.5 µM in test [7], 53.5 µM in [8] and above 57.8 µM in test [9].

With `O=C1Sc2ccccc2C(=O)N2CSCC12` (configuration not stated), the TGI in test [1], in test [2], in test [3], in [4], in [5] and in test [6] was above 100 µM in each case. Also, the TGI in test [7] and in test [8] was above 100 µM throughout.

With `Cc1cn([C@@H]2C[C@H](CO)[C@@H](O)C2)c(=O)[nH]c1=O`, the TGI in test [1], in test [2], in test [5], in test [6], in test [7] and in test [8] was above 100 µM in each case. This compound had a TGI in test [9] above 100 µM.

Regarding `O=C(NC(COC(=O)C(Cc1ccccc1)NC(=O)c1ccccc1)Cc1ccccc1)c1ccccc1` (configuration not stated), the TGI in test [1], in test [2], in test [4], in test [5], in [7] and in test [8] was above 50 µM throughout. The compound further came in with a TGI in test [9] above 50 µM.

On to `CSC(=Nc1ccccc1)N(c1ccccc1)c1nc(=[N+](C)C)ss1`, for which the TGI in test [1] was found to be 4.83 µM; in test [2], 28.3 µM; in [3] it was 19.3 µM; in test [4] it was 27.7 µM; in test [5], 29.5 µM; in test [6] it was 14.7 µM. Moreover, the TGI was found to be 0.383 µM in [7], 19.8 µM in test [8] and 28.6 µM in test [9].

Consider `COc1ccc(-c2oc(/C=N/NC(N)=S)c([N+](=O)[O-])c2-c2ccc(OC)c(OC)c2)cc1OC`, for which the TGI in [1] was 47.9 µM; in [3] it was above 100 µM; in test [4], above 100 µM; in test [5], 80.4 µM; in test [6], above 100 µM; in test [7] it was 51.7 µM. Besides, the TGI in test [8] and in test [9] was above 100 µM each time.

Turning to `COc1ccc(CC2c3c(cc(OC)c(OC)c3OC)CCN2C)cc1OC` (configuration not stated), the TGI in [1], in test [2], in [3], in test [4], in test [5] and in test [6] was above 100 µM each time. Further, the TGI in [7], in test [8] and in test [9] was above 100 µM each time.

For the compound `COc1cc2c(cc1OC)[C@H]1CN3CCC[C@H]3C=C1c1ccc(OC)c(O)c1-2`, the TGI is 0.00324 µM in test [2]; 0.0169 µM in test [3]; 0.114 µM in test [4]; 0.0218 µM and 0.0484 µM in [7]; 0.00184 µM in test [8]; 0.00431 µM and 0.0108 µM in [9].
